In EP1203770A1 (priority 1992, dated 1994):
Where two headings read alike, the source gives them in different places.

Target: T1, HIV-1 protease (Human immunodeficiency virus type 1 group M subtype B, UniProt P04585)
T1 construct: The protease (or proteinase), consisting of only 99 amino acids, is among the smallest enzymes known
Experiment: In vitro HIV protease inhibitory assay (HIV Protease FITC Assay)
Type: biochemical
Conditions: for inhibition at 0.123 µM / inhibition at 0.37 µM / inhibition at 1.1 µM / inhibition at 3.3 µM / inhibition at 10 µM / inhibition at 30 µM: read-out: HIV-1 Protease % Inhib
How it was run: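 Percent inhibition was read as fluorescence after avidin-bead capture and filtration separated FITC cleavage product from biotinylated substrate. Enzyme and substrate reacted 1 h, RT, dark, at pH 5.5 (0.1 M sodium acetate, 1.0 M NaCl, 0.05% NP-40).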

Structure (SMILES) | inhibition at 0.123 µM (HIV-1 Dose 0.123 uM) [%] | inhibition at 0.37 µM (HIV-1 Dose 0.370 uM) [%] | inhibition at 1.1 µM (HIV-1 Dose 1.100 uM) [%] | inhibition at 3.3 µM (HIV-1 Dose 3.300 uM) [%] | inhibition at 10 µM (HIV-1 Dose 10.000 uM) [%] | inhibition at 30 µM (HIV-1 Dose 30.000 uM) [%] | inhibition at 0.123 µM [%] | inhibition at 0.37 µM [%] | inhibition at 1.1 µM [%] | inhibition at 3.3 µM [%] | inhibition at 10 µM [%] | inhibition at 30 µM [%] | Ki (read-out: HIV-1 FITC Ki) [nM] | Ki [nM]
C=CC(C1=C(O)CC(Cc2ccccc2)(c2ccccc2)OC1=O)c1ccccc1 (centres unmarked) [Example 168, 5,6-Dihydro-4-hydroxy-6-phenyl-6-(phenylmethyl)-3-(1-phenyl-2-propenyl)-2H-pyran-2-one] | < 10 | < 10 | < 10 | 10.4 | 43.4 | 48 |  |  |  |  |  |  |  | 
CCC(C1=C(O)CC(Cc2ccccc2)(c2ccccc2)OC1=O)c1ccccc1 (centres unmarked) [Example 169, 5,6-Dihydro-4-hydroxy-6-phenyl-6-(phenylmethyl)-3-(1-phenylpropyl)-2H-pyran-2-one] |  |  |  |  |  |  | < 10 | < 10 | < 10 | < 10 | 33.2 | 54.8 |  | 
CCCC1(CCc2ccccc2)CC(O)=C(C(/C=C/c2ccccc2)c2ccccc2)C(=O)O1 (centres unmarked) [Example 170, 3-(1,3-Diphenyl-2-propenyl)-5,6-dihydro-4-hydroxy-6-(2-phenylethyl)-6-propyl-, (E)-2H-pyran-2-one] |  |  |  |  |  |  | < 10 | 29.6 | 62.1 | 86.7 | 95.1 | 93 | 50 | 
CCCC1(CCc2ccccc2)CC(O)=C(C(CCc2ccccc2)c2ccccc2)C(=O)O1 (centres unmarked) [Example 171, 3-(1,3-Diphenylpropyl)-5,6-dihydro-4-hydroxy-6-(2-phenylethyl)-6-propyl-, 2H-pyran-2-one] |  |  |  |  |  |  | 11.8 | 39.5 | 68.9 | 82.2 | 96.8 | 94.6 | 50 | 
O=C1OC(Cc2ccccc2)(c2ccccc2)CC(O)=C1C(/C=C/c1ccccc1)c1ccccc1 (centres unmarked) [Example 172, 3-(1,3-Diphenyl-2-propenyl)-5,6-dihydro-4-hydroxy-6-phenyl-6-(phenylmethyl)-2H-pyran-2-one] | < 10 | < 10 | 11.7 | 29.5 | 56.8 | 60.6 |  |  |  |  |  |  |  | 
CCCC1(CCc2ccccc2)CC(O)=C(/C(=C/c2ccccc2)c2ccccc2)C(=O)O1 (centres unmarked) [Example 173, 3-(1,2-Diphenylethenyl)-5,6-dihydro-4-hydroxy-6-(2-phenylethyl)-6-propyl-, (E)-2H-pyran-2-one] | < 10 | < 10 |  | < 10 | 39.2 | 58.8 |  |  |  |  |  |  |  | 
C=CC(C1=C(O)CC(CCC)(CCc2ccccc2)OC1=O)c1ccccc1 (centres unmarked) [Example 174, 5,6-Dihydro-4-hydroxy-6-(2-phenylethyl)-3-(1-phenyl-2-propenyl)-6-propyl-2H-pyran-2-one] | 23.5 | 52.8 | 81.8 | 102 | 110 | 106 |  |  |  |  |  |  | 16 | 
CCCC1(CCc2ccccc2)CC(O)=C(C(CC)c2ccccc2)C(=O)O1 (centres unmarked) [Example 175, 5,6-Dihydro-4-hydroxy-6-(2-phenylethyl)-3-(1-phenylpropyl)-6-propyl-2H-pyran-2-one] |  |  |  |  |  |  | 19.7 | 46.7 | 78.8 | 99.3 | 107 | 105 |  | 35
CCCC1(Cc2ccccc2)CC(O)=C(C(C=Cc2ccccc2)c2ccccc2)C(=O)O1 (centres unmarked) [Example 176, 3-(1,3-Diphenyl-2-propenyl)-5,6-dihydro-4-hydroxy-6-(phenylmethyl)-6-propyl-2H-pyran-2-one] | < 10 | < 10 | 28.9 | 62.3 | 88.7 | 101 |  |  |  |  |  |  |  | 
CCCC1(Cc2ccccc2)CC(O)=C(C(CCc2ccccc2)c2ccccc2)C(=O)O1 (centres unmarked) [Example 177, 3-(1,3-Diphenylpropyl)-5,6-dihydro-4-hydroxy-6-(phenylmethyl)-6-propyl-2H-pyran-2-one] | < 10 | 19.7 | 48.2 | 74.2 | 89.3 | 95 |  |  |  |  |  |  |  | 
CCC(Cc1ccccc1)c1cc(O)c(C(c2cccc(NS(=O)(=O)c3ccccc3)c2)C2CC2)c(=O)o1 (stereo not drawn) [Example 178, 3-(α-Cyclopropyl-meta-(phenylsulfonylamino)benzyl)-6-(α-ethylphenethyl)-4-hydroxy-2H-pyran-2-one] | 21.6 | 61.9 | 83.1 | 95.5 | 104 | 107 |  |  |  |  |  |  | 17.4 | 
CCCS(=O)(=O)Nc1cccc(C(c2c(O)cc(C(CC)Cc3ccccc3)oc2=O)C2CC2)c1 (stereo not drawn) [Example 179, 3-(α-Cyclopropyl-meta-(propylsulfonylamino)benzyl)-6-(α-etylphenethyl)-4-hydroxy-2H-pyran-2-one] | 23.7 | 61.9 | 77.9 | 94.4 | 95.1 | 102 |  |  |  |  |  |  | 40 | 
CCC(Cc1ccccc1)c1cc(O)c(C(c2cccc(NS(=O)(=O)/C=C/c3ccccc3)c2)C2CC2)c(=O)o1 (stereo not drawn) [Example 180, 3-(α-Cyclopropyl-meta-((E)-2-phenylethenylsulfonylamino)benzyl)-6-(α-ethylphenethyl)-4-hydroxy-2H-pyran-2-one] | 32 | 55.9 | 80.5 | 91.9 | 99.5 | 98 |  |  |  |  |  |  | 23.3 | 
CCC(Cc1ccccc1)c1cc(O)c(C(c2cccc(NS(=O)(=O)c3ccc(Br)cc3)c2)C2CC2)c(=O)o1 (stereo not drawn) [Example 181, 3-(α-Cyclopropyl-meta-(4-bromophenylsulfonylamino)benzyl)-6-(α-ethylphenethyl)-4-hydroxy-2H-pyran-2-one] | 32.6 | 64.5 | 82.4 | 95.3 | 101 | 95.5 |  |  |  |  |  |  | 18.9 | 
CCC(Cc1ccccc1)c1cc(O)c(C(c2cccc(NS(=O)(=O)c3cc(Cl)ccc3Cl)c2)C2CC2)c(=O)o1 (stereo not drawn) [Example 182, 3-(α-Cyclopropyl-meta-(2,5-dichlorophenylsulfonylamino)benzyl)-6-(α-ethylphenethyl)-4-hydroxy-2H-pyran-2-one] | < 10 | 15 | 45.7 | 71.9 | 94.9 | 96.5 |  |  |  |  |  |  |  | 
CCC(Cc1ccccc1)c1cc(O)c(C(c2cccc(NS(=O)(=O)c3ccc(C(C)(C)C)cc3)c2)C2CC2)c(=O)o1 (stereo not drawn) [Example 183, 3-(α-Cyclopropyl-meta-(4-tert-butylphenylsulfonylamino)benzyl)-6-(α-ethylphenethyl)-4-hydroxy-2H-pyran-2-one] | < 10 | 11.9 | 28.2 | 60.6 | 88.9 | 90.8 |  |  |  |  |  |  |  | 
CCC(Cc1ccccc1)c1cc(O)c(C(c2cccc(NS(=O)(=O)c3ccc(C#N)cc3)c2)C2CC2)c(=O)o1 (stereo not drawn) [Example 184, 3-(α-Cyclopropyl-meta-(4-cyanophenylsulfonylamino)benzyl)-6-(α-ethylphenethyl)-4-hydroxy-2H-pyran-2-one] | 65 | 87 | 94.5 | 99 | 102 | 102 |  |  |  |  |  |  | 5.7 | 
CCC(Cc1ccccc1)c1cc(O)c(C(c2cccc(NS(=O)(=O)c3ccc(OC)cc3)c2)C2CC2)c(=O)o1 (stereo not drawn) [Example 185, 3-(α-Cyclopropyl-meta-(4-methoxyphenylsulfonylamino)benzyl)-6-(α-ethylphenethyl)-4-hydroxy-2H-pyran-2-one] | 40.5 | 71.4 | 89.1 | 95.9 | 103 | 92.9 |  |  |  |  |  |  |  | 
CCC(c1ccccc1)c1cc(O)c(C(CC)c2ccccc2)c(=O)o1 (stereo not drawn) [Example 186, 3-α-Ethylbenzyl-6-α-ethylbenzyl-4-hydroxy-2H-pyran-2-one] | < 10 | < 10 | < 10 | 11 | 41.6 | 61.6 |  |  |  |  |  |  | 22.4 | 
CC[C@H](Cc1ccccc1)c1cc(O)c([C@@H](CC)c2ccccc2)c(=O)o1 [Example 189, 3-([S]-α-ethylbenzyl)-4-hydroxy-6-([R]-α-ethylphenethyl)-2H-pyran-2-one] |  |  |  |  |  |  |  |  |  |  |  |  | ~15 | 
CC(C)CC1(CCc2ccccc2)CC(O)=C(C(c2ccccc2)c2ccccc2)C(=O)O1 (centres unmarked) [Example 209, 2H-Pyran-2-one, 3-diphenylmethyl-5,6-dihydro-4-hydroxy-6-(2-methylpropyl)-6-(2-phenylethyl)-] | < 10 | 12 | 32.2 | 59.9 | 76.7 | 77.8 |  |  |  |  |  |  | 92 | 
